Data: patent US20240150377A1, “MODULATORS OF CYSTIC FIBROSIS TRANSMEMBRANE CONDUCTANCE REGULATOR” (VERTEX PHARMACEUTICALS INCORPORATED, priority 2020, published 2024)
pEC50: −log10 of the molar value.

Molecular target: T1, CFTR (Homo sapiens, UniProt P13569, DEL508-508)
T1 construct: endogenous in cells; host or cells: primary human bronchial epithelial cells from CF subjects (F508del/MF-HBE), differentiated at air-liquid interface
Test: HBE2 assay: Ussing chamber assay of CFTR-mediated short-circuit currents
Format: cell-based
Conditions: F508del/MF-HBE cells, 18-24 hours, 20% human serum; for Emax: read-out: HBE2 Max activity (%)
Summary of the method: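 Corrector activity read as CFTR-dependent ISC (μA/cm^2): peak forskolin current minus post-inhibitor steady state. Measured at 37 °C, voltage clamp at 0 mV, on F508del/MF-HBE epithelia grown >14 days air-liquid interface in Ussing chambers.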

[1] = 3 μM corrector, with 44 nM potentiator

T1 sequence (P13569 with tags, fused parts or gaps DEL508-508): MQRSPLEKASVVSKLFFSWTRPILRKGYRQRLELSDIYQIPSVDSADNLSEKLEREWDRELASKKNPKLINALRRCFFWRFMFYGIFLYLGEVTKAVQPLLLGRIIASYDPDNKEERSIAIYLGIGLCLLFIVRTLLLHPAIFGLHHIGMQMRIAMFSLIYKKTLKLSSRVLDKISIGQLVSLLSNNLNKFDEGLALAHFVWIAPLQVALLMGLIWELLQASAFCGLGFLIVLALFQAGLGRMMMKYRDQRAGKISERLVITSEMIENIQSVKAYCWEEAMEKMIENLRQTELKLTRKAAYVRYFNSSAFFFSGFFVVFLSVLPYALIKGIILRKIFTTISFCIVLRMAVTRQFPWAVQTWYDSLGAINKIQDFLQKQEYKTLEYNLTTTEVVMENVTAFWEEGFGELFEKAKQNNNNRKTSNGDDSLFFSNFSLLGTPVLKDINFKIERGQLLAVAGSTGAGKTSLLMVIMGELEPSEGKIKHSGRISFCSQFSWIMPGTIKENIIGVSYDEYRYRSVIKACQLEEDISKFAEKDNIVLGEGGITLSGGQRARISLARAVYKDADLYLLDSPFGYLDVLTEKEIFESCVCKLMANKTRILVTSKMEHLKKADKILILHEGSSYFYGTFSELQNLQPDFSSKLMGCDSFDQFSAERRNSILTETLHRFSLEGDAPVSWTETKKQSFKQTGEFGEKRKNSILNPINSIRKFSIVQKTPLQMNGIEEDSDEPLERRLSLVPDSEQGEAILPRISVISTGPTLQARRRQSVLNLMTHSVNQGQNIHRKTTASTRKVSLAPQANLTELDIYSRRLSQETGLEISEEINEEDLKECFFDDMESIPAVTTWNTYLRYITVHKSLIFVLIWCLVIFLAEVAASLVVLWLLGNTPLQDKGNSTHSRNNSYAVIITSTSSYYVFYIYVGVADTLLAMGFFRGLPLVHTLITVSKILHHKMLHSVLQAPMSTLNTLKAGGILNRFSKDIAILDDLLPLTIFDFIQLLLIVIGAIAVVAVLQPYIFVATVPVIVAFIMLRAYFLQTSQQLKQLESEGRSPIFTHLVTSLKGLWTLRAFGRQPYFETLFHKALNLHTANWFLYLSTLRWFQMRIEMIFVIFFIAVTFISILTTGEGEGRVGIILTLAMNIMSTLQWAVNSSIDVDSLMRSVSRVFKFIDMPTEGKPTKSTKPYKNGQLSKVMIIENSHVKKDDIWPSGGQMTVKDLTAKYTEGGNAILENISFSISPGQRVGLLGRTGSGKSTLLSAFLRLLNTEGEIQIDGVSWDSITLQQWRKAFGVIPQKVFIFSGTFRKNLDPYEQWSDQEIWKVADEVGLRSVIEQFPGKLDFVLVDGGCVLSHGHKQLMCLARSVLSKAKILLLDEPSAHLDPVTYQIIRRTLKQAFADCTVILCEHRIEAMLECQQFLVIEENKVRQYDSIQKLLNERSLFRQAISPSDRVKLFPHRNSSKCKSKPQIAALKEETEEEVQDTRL

In the case of `Cc1cccc(C)c1-c1cc2nc(n1)NS(=O)(=O)c1cccc(c1)C(=O)N(Cc1cnc3c(n1)N(C)C(C)(C)C3)[C@H](CC(C)(C)C)CO2` [Compound 1883], the “HBE2 Activity at 3 μM (%)” value [1] was “+++ (+++ is >60+)”.
For `Cc1cccc(C)c1-c1cc2nc(n1)NS(=O)(=O)c1cccc(c1)C(=O)N(Cc1cncc(N3CCC[C@@H]3C3CC3)n1)[C@H](COC1CC1)CO2` (stereo in doubt) [Compound 1891], the “HBE2 Activity at 3 μM (%)” value [1] was “+++ (+++ is >60+)”.
For `Cc1cccc(C)c1-c1cc2nc(n1)NS(=O)(=O)c1cccc(c1)C(=O)N(Cc1cnc3cc(C(C)C)n(C)c3n1)[C@H](CCC1CC1)CO2` [Compound 1828], the “HBE2 Activity at 3 μM (%)” value [1] was “+++ (+++ is >60+)”.
`Cc1cccc(C)c1-c1cc2nc(n1)NS(=O)(=O)c1cccc(c1)C(=O)N(Cc1cncc(C(C)C)n1)[C@H](CCC(C)(C)C)CO2` [Compound 1842] was tested, and the “HBE2 Activity at 3 μM (%)” value [1] was “+++ (+++ is >60+)”.
`Cc1cccc(C)c1-c1cc2nc(n1)NS(=O)(=O)c1cccc(c1)C(=O)N(Cc1cnc(N3CC(C)(C)C3)cn1)[C@H](CC(C)(C)C)CO2` [Compound 1654] was tested, and the “HBE2 Activity at 3 μM (%)” value (3 μM, with 44 nM potentiator) was “+++ (+++ is >60+)”.
With `COC[C@@H]1CCN1c1cncc(CN2C(=O)c3cccc(c3)S(=O)(=O)Nc3nc(cc(-c4c(C)cccc4C)n3)OC[C@H]2CC2CC2)n1` [Compound 1786] the “HBE2 Activity at 3 μM (%)” value [1] was “+++ (+++ is >60+)”.
In the case of `COc1cc(CN2C(=O)c3cccc(c3)S(=O)(=O)Nc3nc(cc(-c4c(C)cccc4C)n3)OC[C@H]2CC(C)(C)C)nc(N(C)C2CCC2)c1` [Compound 1700], the “HBE2 Activity at 3 μM (%)” value (3 μM, with 44 nM potentiator) was “+++ (+++ is >60+)”.
With `Cc1cccc(C)c1-c1cc2nc(n1)NS(=O)(=O)c1cccc(c1)C(=O)N(Cc1cccc(N3CC[C@H]3C)n1)[C@H](CC(C)(C)C)CO2` [Compound 1551] the “HBE2 Activity at 3 μM (%)” value (3 μM, with 44 nM potentiator) was “+++ (+++ is >60+)”.
`CCC(C)(C)C[C@@H]1COc2cc(-c3c(C)cccc3C)nc(n2)NS(=O)(=O)c2cccc(c2)C(=O)N1Cc1cncc(N(C)C2CCC2)n1` [Compound 1329, 12-[[6-[cyclobutyl(methyl)amino]pyrazin-2-yl]methyl]-11-(2,2-dimethylbutyl)-6-(2,6-dimethylphenyl)-2,2-dioxo-9-oxa-2λ^6-thia-3,5,12,19-tetrazatricyclo[12.3.1.14,8]nonadeca-1(18),4,6,8(19),14,16-hexaen-13-one] was tested, and the “HBE2 Activity at 3 μM (%)” value [1] was “++ (++ is 30-60%)”.
With `Cc1cccc(C)c1-c1cc2nc(n1)NS(=O)(=O)c1cccc(c1)C(=O)N(Cc1cccc(N(C)C3CCC3)n1)[C@H](CC(C)(C)C)CO2` [Compound 1578] the “HBE2 Activity at 3 μM (%)” value (3 μM, with 44 nM potentiator) was “+++ (+++ is >60+)”, the pEC50 (with 44 nM potentiator) was > 6.00 and the Emax (with 44 nM potentiator) was > 60%.
`Cc1cccc(C)c1-c1cc2nc(n1)NS(=O)(=O)c1cccc(c1)C(=O)N(Cc1cncc(N3CCC[C@H]3C(C)C)n1)[C@H](CCC1CC1)CO2` [Compound 1720] was tested, and the “HBE2 Activity at 3 μM (%)” value [1] was “+++ (+++ is >60+)”, the pEC50 (corrector at a range of concentrations with 44 nM potentiator) was > 6.00 and the Emax (with 44 nM potentiator) was > 60%.
In the case of `Cc1cccc(C)c1-c1cc2nc(n1)NS(=O)(=O)c1cccc(c1)C(=O)N(Cc1cncc(N(C)[C@H]3C[C@@H](C)C3)n1)[C@H](CCC(C)(C)C)CO2` [Compound 1884], the “HBE2 Activity at 3 μM (%)” value [1] was “+++ (+++ is >60+)”.
In the case of `Cc1cccc(C)c1-c1cc2nc(n1)NS(=O)(=O)c1cccc(c1)C(=O)N(Cc1cncc(N(C)[C@H]3C[C@H](F)C3)n1)[C@H](CCC(C)C)CO2` [Compound 1914], the “HBE2 Activity at 3 μM (%)” value [1] was “+++ (+++ is >60+)”.
For `Cc1cccc(C)c1-c1cc2nc(n1)NS(=O)(=O)c1cccc(c1)C(=O)N(Cc1cncc(N3CC[C@@H]4CC[C@@H]43)n1)[C@H](CC(C)(C)C)CO2` (single isomer, unassigned) [Compound 1314], the “HBE2 Activity at 3 μM (%)” value (3 μM, with 44 nM potentiator) was “+++ (+++ is >60+)”.
For `Cc1cccc(C)c1-c1cc2nc(n1)NS(=O)(=O)c1cccc(c1)C(=O)N(Cc1nc(N(C)C3CCC3)c(C)nc1C)[C@H](CC(C)(C)C)CO2` [Compound 1651], the “HBE2 Activity at 3 μM (%)” value (3 μM, with 44 nM potentiator) was “+++ (+++ is >60+)”.
For `Cc1cccc(C)c1-c1cc2nc(n1)NS(=O)(=O)c1cc(n(C)n1)C(=O)N(Cc1cncc(N3CCC[C@H]3C)n1)[C@H](CC(C)(C)C)CO2` [Compound 1945], the “HBE2 Activity at 3 μM (%)” value [1] was “+++ (+++ is >60+)”.
For `Cc1cccc(C)c1-c1cc2nc(n1)NS(=O)(=O)c1cccc(c1)C(=O)N(Cc1ncc(N3CCC(C)(C)CC3)cn1)[C@H](CC1(C)CC1)CO2` [Compound 1560], the “HBE2 Activity at 3 μM (%)” value (3 μM, with 44 nM potentiator) was “+++ (+++ is >60+)”.
In the case of `Cc1cccc(C)c1-c1cc2nc(n1)NS(=O)(=O)c1cccc(c1)C(=O)N(Cc1cncc(N(C)CCN(C)C(=O)OC(C)(C)C)n1)[C@H](CC(C)(C)C)CO2` [Compound 1648], the “HBE2 Activity at 3 μM (%)” value (3 μM, with 44 nM potentiator) was “+++ (+++ is >60+)”.
For `Cc1cccc(C)c1-c1cc2nc(n1)NS(=O)(=O)c1cccc(c1)C(=O)N(Cc1cncc(N(C)C3CCC3)n1)[C@H](CC1(C)CCC1)CO2` [Compound 1683], the “HBE2 Activity at 3 μM (%)” value (3 μM, with 44 nM potentiator) was “+++ (+++ is >60+)”, the pEC50 (with 44 nM potentiator) was > 6.00 and the Emax (with 44 nM potentiator) was > 60%.
With `CCCOc1cnc(CN2C(=O)c3cccc(c3)S(=O)(=O)Nc3nc(cc(-c4c(C)cccc4C)n3)OC[C@H]2CCC2CC2)nc1` [Compound 1600] the “HBE2 Activity at 3 μM (%)” value (3 μM, with 44 nM potentiator) was “+++ (+++ is >60+)”.
In the case of `Cc1cccc(C)c1-c1cc2nc(n1)NS(=O)(=O)c1cccc(c1)C(=O)N(Cc1ncc(OC3CCC3)cc1F)[C@H](COC(C)C)CO2` [Compound 1953], the “HBE2 Activity at 3 μM (%)” value [1] was “+++ (+++ is >60+)”.
For `Cc1cccc(C)c1-c1cc2nc(n1)NS(=O)(=O)c1cccc(c1)C(=O)N(Cc1cncc(N(C)C3CC4CCC43)n1)[C@H](CC(C)(C)C)CO2` (stereo partly drawn) [Compound 1784], the “HBE2 Activity at 3 μM (%)” value [1] was “+++ (+++ is >60+)”.
With `Cc1cccc(C)c1-c1cc2nc(n1)NS(=O)(=O)c1cccc(c1)C(=O)N(Cc1ncc(OC(C)C)cn1)[C@H]([C@@H](C)C(C)C)CO2` (stereo in doubt) [Compound 1571] the “HBE2 Activity at 3 μM (%)” value (3 μM, with 44 nM potentiator) was “+ (+ is <300))”.
`Cc1cccc(C)c1-c1cc2nc(n1)NS(=O)(=O)c1cccc(c1)C(=O)N(Cc1ncc(N3CC(C)(C)C3)cn1)[C@H](CC1CCC1)CO2` [Compound 1594] was tested, and the pEC50 (with 44 nM potentiator) was > 6.00 and the Emax (with 44 nM potentiator) was > 60%.
`Cc1cccc(C)c1-c1cc2nc(n1)NS(=O)(=O)c1cccc(c1)C(=O)N(Cc1cncc(N3CC[C@@H]3C)n1)[C@H](CC1CCCC1)CO2` (stereo in doubt) [Compound 1843] was tested, and the “HBE2 Activity at 3 μM (%)” value [1] was “+++ (+++ is >60+)”.
In the case of `Cc1cccc(C)c1-c1cc2nc(n1)NS(=O)(=O)c1cccc(c1)C(=O)N(Cc1cncc(N(C)C3CCC3)n1)[C@@H]1CN(CCC(C)(C)C)C[C@H]1O2` [Compound 1741], the “HBE2 Activity at 3 μM (%)” value [1] was “++ (++ is 30-60%)”.
For `Cc1cccc(C)c1-c1cc2nc(n1)NS(=O)(=O)c1cccc(c1)C(=O)N(Cc1cncc(N3CCC34COC4)n1)[C@H](CC(C)(C)C)CO2` [Compound 1624], the “HBE2 Activity at 3 μM (%)” value (3 μM, with 44 nM potentiator) was “+++ (+++ is >60+)”.
With `Cc1cccc(C)c1-c1cc2nc(n1)NS(=O)(=O)c1cccc(c1)C(=O)N(Cc1cncc(N(C)CCOC(=O)N(C)C)n1)[C@H](CC(C)(C)C)CO2` [Compound 1667] the “HBE2 Activity at 3 μM (%)” value (3 μM, with 44 nM potentiator) was “+++ (+++ is >60+)”.
For `Cc1cccc(C)c1-c1cc2nc(n1)NS(=O)(=O)c1cccc(c1)C(=O)N(Cc1cnc3cc(C(C)C)n(C)c3n1)[C@H](CC1CCC1)CO2` [Compound 1830], the “HBE2 Activity at 3 μM (%)” value [1] was “+++ (+++ is >60+)”.
